Assay results published in the NIST ThermoML archive (doi:10.1021/je060170c).

Experiment: xn = mol fraction of the nth substance listed
Details: 101 kPa, Liquid; for viscosity: Anton Paar Stabinger viscometer

Cc1cc(C)cc(C)c1 [1,3,5-trimethylbenzene] + COc1ccccc1
Details | mass density [kg/m3] | speed of sound [m/s] | viscosity [mPa·s]
288.15 K, x2 = 0 | 869.169 | 1377.5 | 0.754
288.15 K, x2 = 0.074 | 876.661 | 1383.1 | 0.769
288.15 K, x2 = 0.181 | 887.986 | 1390.7 | 0.802
288.15 K, x2 = 0.334 | 905.232 | 1400.3 | 0.849
288.15 K, x2 = 0.4982 | 925.26 | 1408 | 0.893
288.15 K, x2 = 0.628 | 942.318 | 1420.3 | 0.965
288.15 K, x2 = 0.7512 | 959.611 | 1426.3 | 1.005
288.15 K, x2 = 0.814 | 968.893 | 1433.8 | 1.061
288.15 K, x2 = 0.875 | 978.238 | 1438.6 | 1.101
288.15 K, x2 = 0.94 | 988.554 | 1445.6 | 1.158
293.15 K, x2 = 0 | 865.072 | 1357 | 0.705
293.15 K, x2 = 0.074 | 872.553 | 1361.7 | 0.716
293.15 K, x2 = 0.181 | 883.818 | 1368.1 | 0.743
293.15 K, x2 = 0.334 | 900.968 | 1376.2 | 0.782
293.15 K, x2 = 0.4982 | 920.888 | 1383.3 | 0.819
293.15 K, x2 = 0.628 | 937.858 | 1395.1 | 0.883
293.15 K, x2 = 0.7512 | 955.065 | 1401.5 | 0.92
293.15 K, x2 = 0.814 | 964.301 | 1410 | 0.971
293.15 K, x2 = 0.875 | 973.59 | 1415.8 | 1.007
293.15 K, x2 = 0.94 | 983.844 | 1424.2 | 1.058
298.15 K, x2 = 0 | 861.062 | 1336.9 | 0.661
298.15 K, x2 = 0.074 | 868.529 | 1342.6 | 0.674
298.15 K, x2 = 0.181 | 879.758 | 1350.1 | 0.697
298.15 K, x2 = 0.334 | 896.835 | 1360 | 0.733
298.15 K, x2 = 0.4982 | 916.671 | 1370.5 | 0.767
298.15 K, x2 = 0.628 | 933.575 | 1379.4 | 0.827
298.15 K, x2 = 0.7512 | 950.712 | 1388.1 | 0.863
298.15 K, x2 = 0.814 | 959.91 | 1392.9 | 0.912
298.15 K, x2 = 0.875 | 969.162 | 1397.6 | 0.946
298.15 K, x2 = 0.94 | 979.363 | 1402.8 | 0.993
303.15 K, x2 = 0 | 856.95 | 1316.8 | 0.621
303.15 K, x2 = 0.074 | 864.41 | 1320.5 | 0.633
303.15 K, x2 = 0.181 | 875.58 | 1326.7 | 0.65
303.15 K, x2 = 0.334 | 892.57 | 1336.1 | 0.677
303.15 K, x2 = 0.4982 | 912.31 | 1347.1 | 0.706
303.15 K, x2 = 0.628 | 929.13 | 1356.2 | 0.758
303.15 K, x2 = 0.7512 | 946.19 | 1365.4 | 0.792
303.15 K, x2 = 0.814 | 955.34 | 1370.5 | 0.837
303.15 K, x2 = 0.875 | 964.55 | 1375.6 | 0.87
303.15 K, x2 = 0.94 | 974.7 | 1382.8 | 0.912

COc1ccccc1 [anisole] + Cc1ccc(C)cc1
Details | mass density [kg/m3] | speed of sound [m/s] | viscosity [mPa·s]
288.15 K, x1 = 0.0822 | 875.328 | 1360.3 | 0.728
288.15 K, x1 = 0.187 | 888.441 | 1373.1 | 0.778
288.15 K, x1 = 0.31 | 904.181 | 1384.4 | 0.829
288.15 K, x1 = 0.47 | 925.057 | 1395.9 | 0.884
288.15 K, x1 = 0.637 | 947.54 | 1410.4 | 0.958
288.15 K, x1 = 0.747 | 962.692 | 1420.6 | 1.013
288.15 K, x1 = 0.822 | 973.119 | 1437 | 1.109
288.15 K, x1 = 0.888 | 982.387 | 1443 | 1.145
288.15 K, x1 = 0.949 | 991.051 | 1446.3 | 1.167
288.15 K, x1 = 1 | 998.44 | 1449.1 | 1.188
293.15 K, x1 = 0.0822 | 871.032 | 1339.5 | 0.674
293.15 K, x1 = 0.187 | 884.105 | 1352.5 | 0.717
293.15 K, x1 = 0.31 | 899.758 | 1364 | 0.761
293.15 K, x1 = 0.47 | 920.561 | 1375.3 | 0.809
293.15 K, x1 = 0.637 | 942.968 | 1389.9 | 0.875
293.15 K, x1 = 0.747 | 958.092 | 1400.3 | 0.925
293.15 K, x1 = 0.822 | 968.502 | 1416.7 | 1.013
293.15 K, x1 = 0.888 | 977.769 | 1422.5 | 1.046
293.15 K, x1 = 0.949 | 986.356 | 1425.8 | 1.066
293.15 K, x1 = 1 | 993.651 | 1428.5 | 1.084
298.15 K, x1 = 0.0822 | 866.765 | 1317.4 | 0.635
298.15 K, x1 = 0.187 | 879.807 | 1326.5 | 0.674
298.15 K, x1 = 0.31 | 895.413 | 1337.5 | 0.714
298.15 K, x1 = 0.47 | 916.177 | 1352.2 | 0.759
298.15 K, x1 = 0.637 | 938.559 | 1368.2 | 0.821
298.15 K, x1 = 0.747 | 953.665 | 1379.3 | 0.868
298.15 K, x1 = 0.822 | 964.094 | 1387.4 | 0.952
298.15 K, x1 = 0.888 | 973.344 | 1394.8 | 0.985
298.15 K, x1 = 0.949 | 981.943 | 1401.8 | 1.003
298.15 K, x1 = 1 | 989.105 | 1408 | 1.017
303.15 K, x1 = 0.0822 | 862.434 | 1296.9 | 0.597
303.15 K, x1 = 0.187 | 875.432 | 1306.5 | 0.628
303.15 K, x1 = 0.31 | 890.974 | 1317.6 | 0.662
303.15 K, x1 = 0.47 | 911.659 | 1332.7 | 0.7
303.15 K, x1 = 0.637 | 933.983 | 1349.1 | 0.754
303.15 K, x1 = 0.747 | 949.069 | 1360.5 | 0.798
303.15 K, x1 = 0.822 | 959.511 | 1368.5 | 0.875
303.15 K, x1 = 0.888 | 968.761 | 1375.6 | 0.903
303.15 K, x1 = 0.949 | 977.313 | 1382.3 | 0.918
303.15 K, x1 = 1 | 984.372 | 1387.7 | 0.931
